Data published in patent US20230286958A1, “PLASMA KALLIKREIN INHIBITORS” (Merck Sharp & Dohme LLC, priority 2020, published 2023).

Key:
human Factor XIa = human Factor XIa (Homo sapiens (Human), UniProt P03951); test: Factor XIa Assay (fluorogenic substrate GPR-AFC); format: biochemical; details: Factor XIa (FXIa)
Human plasma kallikrein = Human plasma kallikrein (Homo sapiens (Human), UniProt P03952); test: Kallikrein Assay (fluorogenic substrate Acetyl-K-P-R-AFC); format: biochemical; details: Plasma Kallikrein (PKal)
In short: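 Ki is derived from IC50 with the Cheng-Prusoff equation, and IC50 from the inflection point of a four-parameter logistic curve. The rate of AFC release is read with 0.5 nM purified enzyme and […] substrate at room temperature or 37 °C.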

human Factor XIa, sequence (P03951 388-625 limits assumed): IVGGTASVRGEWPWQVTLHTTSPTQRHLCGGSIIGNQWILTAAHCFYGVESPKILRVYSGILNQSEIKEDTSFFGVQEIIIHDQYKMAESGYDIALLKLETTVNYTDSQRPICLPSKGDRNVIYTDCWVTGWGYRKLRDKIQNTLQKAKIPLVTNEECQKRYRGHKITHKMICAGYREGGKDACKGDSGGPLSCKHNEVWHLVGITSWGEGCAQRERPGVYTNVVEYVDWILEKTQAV
human Factor XIa, sequence (P03951 19-387 partner limits assumed): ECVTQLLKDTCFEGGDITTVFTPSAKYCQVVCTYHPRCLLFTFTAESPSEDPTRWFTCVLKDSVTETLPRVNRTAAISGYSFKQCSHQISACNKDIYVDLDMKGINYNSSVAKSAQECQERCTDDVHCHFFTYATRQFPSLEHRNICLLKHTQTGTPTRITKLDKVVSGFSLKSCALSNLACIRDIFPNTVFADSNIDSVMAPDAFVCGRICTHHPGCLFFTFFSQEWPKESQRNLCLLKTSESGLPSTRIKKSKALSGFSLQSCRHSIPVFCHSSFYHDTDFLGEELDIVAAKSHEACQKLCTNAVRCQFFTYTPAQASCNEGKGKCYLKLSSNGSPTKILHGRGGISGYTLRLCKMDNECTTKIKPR
Human plasma kallikrein, sequence (P03952 391-638): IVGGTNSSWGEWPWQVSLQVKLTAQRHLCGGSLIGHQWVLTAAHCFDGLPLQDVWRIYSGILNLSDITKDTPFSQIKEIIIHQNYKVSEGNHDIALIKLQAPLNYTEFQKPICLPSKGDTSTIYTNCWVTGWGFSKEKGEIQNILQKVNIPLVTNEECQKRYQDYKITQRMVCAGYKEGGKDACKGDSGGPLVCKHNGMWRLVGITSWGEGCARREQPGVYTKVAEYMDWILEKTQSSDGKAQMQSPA
Human plasma kallikrein, sequence (P03952 20-390 partner): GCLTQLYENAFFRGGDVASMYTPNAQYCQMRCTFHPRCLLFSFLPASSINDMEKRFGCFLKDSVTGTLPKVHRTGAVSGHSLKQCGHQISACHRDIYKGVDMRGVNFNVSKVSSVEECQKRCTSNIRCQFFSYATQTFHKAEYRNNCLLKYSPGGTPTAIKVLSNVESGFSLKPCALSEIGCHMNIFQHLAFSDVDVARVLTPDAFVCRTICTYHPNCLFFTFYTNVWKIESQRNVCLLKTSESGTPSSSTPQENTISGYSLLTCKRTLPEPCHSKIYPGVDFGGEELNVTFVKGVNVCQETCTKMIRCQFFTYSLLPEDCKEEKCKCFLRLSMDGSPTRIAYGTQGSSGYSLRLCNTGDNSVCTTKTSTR

Row | SMILES | IC50 (human Factor XIa) [µM] | IC50 (Human plasma kallikrein) [µM]
1 | C[C@@H](c1cnc(N2C[C@H]3C[C@H]3C2=O)nc1)n1cc(NC(=O)c2nc(-c3c(C(F)F)ccc(Cl)c3F)cnc2C(F)F)cn1 [Example 174, 6-(3-Chloro-6-(difluoromethyl)-2-fluorophenyl)-3-(difluoromethyl)-N-(1-((S)-1-(2-((1R,5S)-2-oxo-3-azabicyclo[3.1.0]hexan-3-yl)pyrimidin-5-yl)ethyl)-1H-pyrazol-4-yl)pyrazine-2-carboxamide] | 9.35 | 0.0065
2 | CCc1ncc(-c2c(C(F)F)ccc(Cl)c2F)nc1C(=O)Nc1cnn(Cc2cc(C)c(N3C[C@H]4C[C@H]4C3=O)nn2)c1 [Example 233, 6-(3-Chloro-6-(difluoromethyl)-2-fluorophenyl)-3-ethyl-N-(1-((5-methyl-6-((1R,5S)-2-oxo-3-azabicyclo[3.1.0]hexan-3-yl)pyridazin-3-yl)methyl)-1H-pyrazol-4-yl)pyrazine-2-carboxamide] | 1.2 | 0.0197
3 | Cc1ncc(-c2c(C(F)F)ccc(Cl)c2F)nc1C(=O)Nc1cnn(C(C)c2cnc(N3C[C@H]4C[C@H]4C3=O)c(F)c2C)c1 (single isomer, unassigned) [Example 127, 6-(3-Chloro-6-(difluoromethyl)-2-fluorophenyl)-N-(1-((S or i)-1-(5-fluoro-4-methyl-6-((1R,5S)-2-oxo-3-azabicyclo[3.1.0]hexan-3-yl)pyridin-3-yl)ethyl)-1H-pyrazol-4-yl)-3-methylpyrazine-2-carboxamide] | 0.596 | 0.0005
4 | Cc1ncc(-c2c(C(F)F)ccc(Cl)c2F)nc1C(=O)Nc1cnn(C(C)c2cnc(N3C[C@H]4C[C@H]4C3=O)c(C)n2)c1 (single isomer, unassigned) [Example 15, 6-(3-Chloro-6-(difluoromethyl)-2-fluorophenyl)-3-methyl-N-(1-((R or S)-1-(6-methyl-5-((1R,5S)-2-oxo-3-azabicyclo[3.1.0]hexan-3-yl)pyrazin-2-yl)ethyl)-1H-pyrazol-4-yl)pyrazine-2-carboxamide] | 0.992 | 0.0004
5 | CCc1ncc(-c2c(C(F)F)ccc(Cl)c2F)nc1C(=O)Nc1cnn(C(C)c2cc(C)c(N3C[C@H]4C[C@H]4C3=O)nn2)c1 (single isomer, unassigned) [Example 239, 6-(3-Chloro-6-(difluoromethyl)-2-fluorophenyl)-3-ethyl-N-(1-((S or R)-1-(5-methyl-6-((1R,5S)-2-oxo-3-azabicyclo[3.1.0]hexan-3-yl)pyridazin-3-yl)ethyl)-1H-pyrazol-4-yl)pyrazine-2-carboxamide] | 1.23 | 0.0018
6 | CC(c1cnc(N2C[C@H]3C[C@H]3C2=O)c(C(F)F)c1)n1cc(NC(=O)c2cncc(-c3c(C(F)F)ccc(Cl)c3F)n2)cn1 (single isomer, unassigned) [Example 77, 6-(3-Chloro-6-(difluoromethyl)-2-fluorophenyl)-N-(1-((S or R)-1-(5-(difluoromethyl)-6-((1R,5S)-2-oxo-3-azabicyclo[3.1.0]hexan-3-yl)pyridin-3-yl)ethyl)-1H-pyrazol-4-yl)pyrazine-2-carboxamide] | 7.92 | 0.0126
7 | Cc1ncc(-c2c(C(F)F)ccc(Cl)c2F)nc1C(=O)Nc1cnn(C(C)c2ncc(N3C[C@H]4C[C@H]4C3=O)cc2F)c1 (single isomer, unassigned) [Example 137, 6-(3-Chloro-6-(difluoromethyl)-2-fluorophenyl)-N-(1-((S or R)-1-(3-fluoro-5-((1R,5S)-2-oxo-3-azabicyclo[3.1.0]hexan-3-yl)pyridin-2-yl)ethyl)-1H-pyrazol-4-yl)-3-methylpyrazine-2-carboxamide] | > 10 | 0.0077
8 | Cc1ncc(-c2c(C(F)F)ccc(Cl)c2F)nc1C(=O)Nc1cnn(C(C)c2ncc(N3C[C@H]4C[C@H]4C3=O)c(C)c2N)c1 (single isomer, unassigned) [Example 118, N-(1-((R or S)-1-(3-Amino-4-methyl-5-((1R,5S)-2-oxo-3-azabicyclo[3.1.0]hexan-3-yl)pyridin-2-yl)ethyl)-1H-pyrazol-4-yl)-6-(3-chloro-6-(difluoromethyl)-2-fluorophenyl)-3-methylpyrazine-2-carboxamide] | 7.57 | 0.001
9 | Cc1cc(Cn2cc(NC(=O)c3nc(-c4c(OC(F)F)ccc(Cl)c4F)cnc3C)cn2)nnc1N1C[C@H]2C[C@H]2C1=O [Example 113, 6-(3-Chloro-6-(difluoromethoxy)-2-fluorophenyl)-3-methyl-N-(1-((5-methyl-6-((1R,SS)-2-oxo-3-azabicyclo[3.1.0]hexan-3-yl)pyridazin-3-yl)methyl)-1H-pyrazol-4-yl)pyrazine-2-carboxamide] | 0.114 | 0.0021
10 | Cc1nc(C(C)n2cc(NC(=O)c3nc(-c4c(C(F)F)ccc(Cl)c4F)cnc3C)cn2)ccc1N1C[C@H]2C[C@H]2C1=O (single isomer, unassigned) [Example 59, 6-(3-Chloro-6-(difluoromethyl)-2-fluorophenyl)-3-methyl-N-(1-((R or S)-1-(6-methyl-5-((1R,5S)-2-oxo-3-azabicyclo[3.1.0]hexan-3-yl)pyridin-2-yl)ethyl)-1H-pyrazol-4-yl)pyrazine-2-carboxamide] | > 10 | 0.0032
11 | Cc1nc(Cn2cc(NC(=O)c3cncc(-c4c(C(F)F)ccc(Cl)c4F)n3)cn2)cnc1N1C[C@H]2C[C@H]2C1=O [Example 47, 6-(3-Chloro-6-(difluoromethyl)-2-fluorophenyl)-N-(1-((6-methyl-5-((1R,5S)-2-oxo-3-azabicyclo[3.1.0]hexan-3-yl)pyrazin-2-yl)methyl)-1H-pyrazol-4-yl)pyrazine-2-carboxamide] | 1.15 | 0.0025
12 | Cc1c(N2C[C@H]3C[C@H]3C2=O)cnc(C(C)n2cc(NC(=O)c3cncc(-c4c(C(F)F)ccc(Cl)c4F)n3)cn2)c1C (single isomer, unassigned) [Example 243, 6-(3-Chloro-6-(difluoromethyl)-2-fluorophenyl)-N-(1-((R or S)-1-(3,4-dimethyl-5-((1R,5S)-2-oxo-3-azabicyclo[3.1.0]hexan-3-yl)pyridin-2-yl)ethyl)-1H-pyrazol-4-yl)pyrazine-2-carboxamide] | > 10 | 0.0006
13 | O=C(Nc1cnn(C(CO)c2cnc(N3CC4CC4C3=O)nc2)c1)c1cncc(-c2c(C(F)F)ccc(Cl)c2F)n1 (single isomer, unassigned) [Example 161, 6-(3-chloro-6-(difluoromethyl)-2-fluorophenyl)-N-(1-((S or R)-2-hydroxy-1-(2-((1S,5R or 1R,5S)-2-oxo-3-azabicyclo[3.1.0]hexan-3-yl)pyrimidin-5-yl)ethyl)-1H-pyrazol-4-yl)pyrazine-2-carboxamide] | > 10 | 0.0267
14 | Cc1cc(N2C[C@H]3C[C@H]3C2=O)ncc1C(C)n1cc(NC(=O)c2nc(-c3c(C(F)F)ccc(Cl)c3F)cnc2CO)cn1 (single isomer, unassigned) [Example 204, 6-(3-Chloro-6-(difluoromethyl)-2-fluorophenyl)-3-(hydroxymethyl)-N-(1-((R or S)-1-(4-methyl-6-((1R,5S)-2-oxo-3-azabicyclo[3.1.0]hexan-3-yl)pyridin-3-yl)ethyl)-1H-pyrazol-4-yl)pyrazine-2-carboxamide] | 2.52 | 0.0059
15 | Cc1ncc(-c2c(C(F)F)ccc(Cl)c2F)nc1C(=O)Nc1cnn([C@H](C)c2cnc(N3C[C@H]4C[C@H]4C3=O)c(O)c2)c1 [Example 216, 6-(3-Chloro-6-(difluoromethyl)-2-fluorophenyl)-N-(1-((R)-1-(5-hydroxy-6-((1R,5S)-2-oxo-3-azabicyclo[3.1.0]hexan-3-yl)pyridin-3-yl)ethyl)-1H-pyrazol-4-yl)-3-methylpyrazine-2-carboxamide] | 8.42 | 0.0028
16 | C[C@@H](c1cnc(N2C[C@H]3C[C@H]3C2=O)nc1)n1cc(NC(=O)c2nc(-c3c(C(F)F)ccc(Cl)c3F)cnc2CO)cn1 [Example 193] | 0.441 | 0.0004
17 | [2H]C1([2H])C2CC2C(=O)N1c1ncc([C@H](C)n2cc(NC(=O)c3nc(-c4c(C(F)F)ccc(Cl)c4F)cnc3C)cn2)c(C)n1 (single isomer, unassigned) [Example 179, 6-(3-Chloro-6-(difluoromethyl)-2-fluorophenyl)-3-methyl-N-(1-((S)-1-(4-methyl-2-((1S,5R or 1R,5S)-2-oxo-3-azabicyclo[3.1.0]hexan-3-yl-4,4-d2)pyrimidin-5-yl)ethyl)-1H-pyrazol-4-yl)pyrazine-2-carboxamide] | 1.82 | 0.0007
18 | Cc1cc(C(C)n2cc(NC(=O)c3nc(-c4c(C(F)F)ccc(Cl)c4F)cnc3C(C)O)cn2)nnc1N1C[C@H]2C[C@H]2C1=O (single isomer, unassigned) [Example 229, 6-(3-Chloro-6-(difluoromethyl)-2-fluorophenyl)-3-((R or S)-1-hydroxyethyl)-N-(1-((S or R)-1-(5-methyl-6-((1R,5S)-2-oxo-3-azabicyclo[3.1.0]hexan-3-yl)pyridazin-3-yl)ethyl)-1H-pyrazol-4-yl)pyrazine-2-carboxamide] | 0.178 | 0.00037
19 | O=C(Nc1cnn(Cc2cnc(N3C[C@H]4C[C@H]4C3=O)c(Cl)c2)c1)c1cncc(-c2c(C(F)F)ccc(Cl)c2F)n1 [Example 8, N-(1-((5-Chloro-6-((1R,5S)-2-oxo-3-azabicyclo[3.1.0]hexan-3-yl)pyridin-3-yl)methyl)-1H-pyrazol-4-yl)-6-(3-chloro-6-(difluoromethyl)-2-fluorophenyl)pyrazine-2-carboxamide] | > 10 | 0.0119
20 | CC(c1cnc(N2C[C@H]3C[C@H]3C2=O)nc1CO)n1cc(NC(=O)c2cncc(-c3c(C(F)F)ccc(Cl)c3F)n2)cn1 (stereo in doubt) [Example 169, 6-(3-Chloro-6-(difluoromethyl)-2-fluorophenyl)-N-(1-(1-(4-(hydroxymethyl)-2-(2-oxo-3-azabicyclo[3.1.0]hexan-3-yl)pyrimidin-5-yl)ethyl)-1H-pyrazol-4-yl)pyrazine-2-carboxamide] | 2.2 | 0.0152
